Results as given in US20250387360A1, “Methods and Compositions for Treatment of Addiction” (University of Connecticut, priority 2024, published 2025).

Key:
Assay type in all cases: in vivo, mouse
C57BL/6J mice = experiment: Open field activity test (anxiety-like behavior); settings: after 10 days supplementation, 10 min exploration, n=10 mice/group
Description: The open field activity test was conducted to assess the impact of sodium valerate supplementation on exploratory and anxiety-like behavior. This test is a widely used method for analyzing locomotor ability and anxiety-related emotional behaviors in C57BL/6J mice. The open field activity chamber, constructed from white Plexiglass and illuminated with daylight, had dimensions of 37.5 cm height×40 cm length×40 cm width. General locomotor activity was recorded for 10 min by an overhead camera and analyzed using an automated video tracking system (ANY-maze v.4.6, Stoelting, IL, U.S.A, RRID:SCR_014289). The primary variables of interest included the total distance traveled (cm), the number of entries in the center area (20 cm length×20 cm width), and the percentage of time spent in the center area of the open field.
The effects of sodium valerate and NaCl was examined on anxiety-like behavior (n=10 mice/group) after 10 days of supplementation by open-field activity test.

GABA levels = experiment: GABA ELISA in stool, amygdala and plasma after DID; settings: 10 days supplementation following DID, vs NaCl
Description: GABA levels in plasma, stool, and amygdala samples were determined using an ELISA kit (LDN, Labor Diagnostika Nord, Nordhorn, Germany) following the manufacturer's instructions. Plasma samples were used directly without any additional preparation. For stool and amygdala, samples, they were first thawed and then homogenized in a solution consisting of 0.01N HCl (Thermo Fisher Scientific, MA, U.S.A), ImM EDTA (Thermo Fisher Scientific, MA, U.S.A), and 4 mM sodium metabisulfite (Thermo Fisher Scientific, MA, U.S.A). After homogenization, the samples underwent centrifugation at 3000×g for 5 minutes at 4° C. before GABA estimation. To summarize the assay procedure, plasma, homogenized stool, and amygdala samples, and the kit's standards were all processed on an extraction plate. They were subsequently derivatized using an equalizing reagent and subjected to a standard competitive ELISA conducted in GABA-coated 96-well microtiter strips. The optical density (OD) of the solution within the wells was rapidly read at 450 nm using a 96-well plate reader (iMark™ Microplate Absorbance Reader; Biorad, CA, U.S.A, RRID:SCR_023799). The OD data was employed to determine the GABA concentration via a standard curve.
The levels of GABA in the amygdala were measured next, stool, and blood of the mice that underwent the DID paradigm, comparing those supplemented with sodium valerate to those supplemented with NaCl.

female mice = experiment: 4-day DID regimen in young female mice; settings: n=7/group, same DID protocol, vs vehicle control
Description: (§1) A standard 4-day drinking in the dark (DID) model was used to evaluate binge-like ethanol drinking patterns in mice. A 20% v/v ethanol solution was prepared by diluting 190-proof ethyl alcohol (Sigma, MO, U.S.A) with deionized water. During days 1-3, the water bottles were temporarily removed during the dark cycle of the mice, and the mice were provided with a tube containing the 20% v/v ethanol solution for a duration of two hours. On day four, the assessment of binge-like ethanol consumption took place, where the mice were given access to the 20% v/v ethanol solution for a period of four hours. The volume of fluid in the tube (read to the closest 100 μL) was measured immediately upon placement, and at two hours and four hours into the test. Following the completion of the four hours test, approximately 100 μL of blood was collected through cardiac puncture after CO2 euthanasia. Blood samples were subjected to centrifugation at 10,000 rpm for 10 minutes. The determination of blood ethanol concentrations (BEC) was performed using an Analox AMI Analyzer (Analox Instruments, MA, U.S.A). The quantity of ethanol consumed was then calculated as grams per kilogram of the mouse's body weight.

male C57BL/6J mice = experiment: 4-day DID binge-like ethanol drinking with SCFA supplementation in drinking water; settings: 200 mM in drinking water 10 days, male mice n=21/group
From the text: Male C57BL/6J mice, (RRID: IMSR_JAX: 000664), aged 6-8 weeks, were obtained from Jackson Laboratories (ME, U.S.A) for the study. The mice were housed individually under a reversed 12-hours light/dark cycle, with lights off from […] to 7:00 am. A minimum acclimation period of 2 weeks was provided for all animals before they were randomly assigned to their respective groups. Mice had free access to food (Irradiated chow, Teklad global 18% protein rodent diet, 2918, Inotiv, WI, U.S.A) and deionized water to acclimate to the testing environment. Body weight and daily food and fluid intake were monitored and noted for all animal experiments.
as §1
All SCFA were used in sodium salt form. Briefly, sodium acetate (Sigma, MO, U.S.A), sodium butyrate (Sigma, MO, U.S.A), sodium valerate (Ambeed, IL, U.S.A), and sodium chloride (NaCl; Sigma, Mo, U.S.A) were prepared at 200 mM concentration freshly in drinking water every two days. These concentrations were chosen based on earlier studies conducted in mice [Qi Y., et al., Sodium acetate regulates milk fat synthesis through the activation of GPR41/GPR43 signaling pathway. Frontiers in nutrition 2023, 10:1098715; Daien C I, et al., Gut-derived acetate promotes B10 cells with anti-inflammatory effects. JCI insight 2021, 6 (7)]. All SCFA and NaCl solutions were pH verified to control for acidity effects on daily consumption. SCFAs were given to mice via oral drinking for 10 consecutive days before any experiment, and this regimen was maintained throughout the entire experiment.
General statistical analysis (non-microbiome and non-RNAseq analysis) were conducted using GraphPad Prism 8 (GraphPad, CA, USA, RRID:SCR_002798). For the calculation of ethanol consumption during the DID procedure, it was expressed as grams of ethanol per kilogram of body weight (g/kg body weight), where 20% ethanol intake was determined as follows: multiplying the drinking volume by the ethanol percentage within that volume and the density of ethanol, and then dividing this by the mouse's body weight in kilograms. Normality of data distributions was tested by Shapiro-Wilk test and by Q-Q plots. Levene's test was used to test equality of variances across groups. Unpaired Student's t-tests were used to compare behavioral testing, GABA levels, and histone acetylation measurements between the sodium valerate and NaCl groups. To evaluate the impact of antibiotic cocktail administration on ethanol consumption and BEC between the groups receiving Abx and PBS at baseline and after treatment, a mixed ANOVA test was employed, given repeated measures from the same mouse from the two time points. Similarly, mixed ANOVA tests were applied to compare various SCFA levels before and after Abx administration.

With `CCCCC(=O)[O-].[Na+]` [sodium valerate] the distance travelled (C57BL/6J mice) was “did not lead to a significant change”, the “number of entries in center (mean±SD)” value (C57BL/6J mice; p=0.01 vs NaCl) was 57.50±5.48 and the “percentage of time spent in center area (mean±SD)” value (C57BL/6J mice; p=0.03 vs NaCl) was 15.29±4.82. The “GABA levels in plasma” value (GABA levels; n=6 mice/group) was “not significant”, the “GABA levels in stool” value (GABA levels; p=0.0001) was “elevated” and the “GABA levels in the amygdala” value (GABA levels; p=0.01) was “elevated”. For the same compound, the “alcohol binge drinking in female mice” value (female mice) was “significantly reduced”, the “blood ethanol levels in female mice” value (female mice) was “significantly reduced” and the BEC lowered (male C57BL/6J mice; vs NaCl) was 53%. For the same compound, the “reduction in ethanol consumption” value (male C57BL/6J mice; vs NaCl) was 40% and the “ethanol consumption, median” value (male C57BL/6J mice; NaCl control 7.16) was 4.03 g/kg body weight.
